Earlier results in US20040043089A1, “Buguzhi agent and composition and methods of preparing and administering the same” (priority 2002, published 2004).

Conditions: literature statement
In the case of `O=c1ccc2ccc3occc3c2o1` [angelicin], the “Phototoxicity (in words)” value is given as “only weakly phototoxic”. In the case of `Cc1cc2cc3c(C)cc(=O)oc3c(C)c2o1` [Trioxsalen], the “Phototoxicity (in words)” value is given as “weak phototoxicity”. For `COc1c2ccoc2c(OC)c2oc(=O)ccc12` [isopimpinellin], the “Phototoxicity (in words)” value is listed as “only weakly phototoxic”. For `COc1c2occc2cc2ccc(=O)oc12` [xanthotoxin, 8-methoxypsoralen], the “Phototoxicity (in words)” value is given as “phototoxic”. For `COc1c2ccoc2cc2oc(=O)ccc12` [bergapten, 5-methoxypsoralen], the “Phototoxicity (in words)” value is listed as “phototoxic”. For `COc1c(C(C)C)oc2cc3oc(=O)ccc3cc12` [peucedanin], the “Phototoxicity (in words)” value is given as “weak phototoxicity”. For `CC(C)=CCc1c(O)ccc2ccc(=O)oc12` [osthenol], the “Phototoxicity (in words)” value is given as “weak phototoxicity”. For `COc1c2occc2c(OC)c2c(=O)cc(C)oc12` [khellin], the “Phototoxicity (in words)” value is given as “weak phototoxicity”.
